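Where inhibition never reached the appropriate level, the endpoint shown equals the highest concentration tested. Otherwise, values were interpolated linearly from a five-concentration, 48-hour dose response in 96-well plates. At the GI50, growth is halved. The concentration for full growth arrest is given as TGI.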
Key:
Test in all cases: DTP human tumour cell line panel, 48 h
MALME-3M melanoma = tested on: MALME-3M melanoma
MCF7 breast = tested on: MCF7 breast
RPMI-8226 leukemia = tested on: RPMI-8226 leukemia
EKVX NSCLC = tested on: EKVX NSCLC
DU-145 prostate = tested on: DU-145 prostate
HOP-92 NSCLC = tested on: HOP-92 NSCLC
SK-MEL-2 melanoma = tested on: SK-MEL-2 melanoma
PC-3 prostate = tested on: PC-3 prostate
COLO 205 colon = tested on: COLO 205 colon
CCRF-CEM leukemia = tested on: CCRF-CEM leukemia
SN12C renal = tested on: SN12C renal
T-47D breast = tested on: T-47D breast
SK-OV-3 ovarian = tested on: SK-OV-3 ovarian
SW-620 colon = tested on: SW-620 colon
UACC-257 melanoma = tested on: UACC-257 melanoma
NCI/ADR-RES ovarian = tested on: NCI/ADR-RES ovarian
HL-60(TB) leukemia = tested on: HL-60(TB) leukemia
IGROV1 ovarian = tested on: IGROV1 ovarian
786-0 renal = tested on: 786-0 renal
HCT-15 colon = tested on: HCT-15 colon
SK-MEL-28 melanoma = tested on: SK-MEL-28 melanoma
CAKI-1 renal = tested on: CAKI-1 renal
SF-539 CNS = tested on: SF-539 CNS
KM12 colon = tested on: KM12 colon
MDA-MB-231 breast = tested on: MDA-MB-231 breast
BT-549 breast = tested on: BT-549 breast
MDA-MB-435 = tested on: MDA-MB-435
SK-MEL-5 melanoma = tested on: SK-MEL-5 melanoma
NCI-H522 lung = tested on: NCI-H522 lung
NCI-H226 lung = tested on: NCI-H226 lung
U251 CNS = tested on: U251 CNS
SF-295 CNS = tested on: SF-295 CNS
TK-10 renal = tested on: TK-10 renal
ACHN renal = tested on: ACHN renal
UACC-62 melanoma = tested on: UACC-62 melanoma
HCT-116 colon = tested on: HCT-116 colon
A498 renal = tested on: A498 renal
SR leukemia = tested on: SR leukemia
SNB-75 CNS = tested on: SNB-75 CNS
MOLT-4 leukemia = tested on: MOLT-4 leukemia
OVCAR-5 ovarian = tested on: OVCAR-5 ovarian
M14 melanoma = tested on: M14 melanoma
RXF 393 renal = tested on: RXF 393 renal
OVCAR-8 ovarian = tested on: OVCAR-8 ovarian
K-562 leukemia = tested on: K-562 leukemia
A549 NSCLC = tested on: A549 NSCLC
SF-268 CNS = tested on: SF-268 CNS
HOP-62 NSCLC = tested on: HOP-62 NSCLC
NCI-H460 lung = tested on: NCI-H460 lung
LOX IMVI melanoma = tested on: LOX IMVI melanoma
OVCAR-4 ovarian = tested on: OVCAR-4 ovarian
HCC-2998 colon = tested on: HCC-2998 colon
HS 578T breast = tested on: HS 578T breast
SNB-19 CNS = tested on: SNB-19 CNS
HT29 colon = tested on: HT29 colon
UO-31 renal = tested on: UO-31 renal

`CC1(C)CC[C@]23CC[C@]4(C)[C@H](CC[C@@H]5[C@@]6(C)CC[C@H](NCO)C(C)(C)[C@@H]6CC[C@]54C)[C@H]2[C@H]1OC3` was tested, and the GI50 (MALME-3M melanoma) was 16 µM, the TGI (MALME-3M melanoma) was 34.3 µM and the GI50 (MCF7 breast) was 2.25 µM. It also gave a TGI (MCF7 breast) of 6.4 µM, a GI50 (RPMI-8226 leukemia) of 3.64 µM and a TGI (RPMI-8226 leukemia) of 18.7 µM. The GI50 (EKVX NSCLC) was 16.9 µM, the TGI (EKVX NSCLC) was 32.5 µM and the GI50 (DU-145 prostate) was 14.1 µM. For the same molecule, the TGI (DU-145 prostate) was 32 µM, the GI50 (HOP-92 NSCLC) was 2.82 µM and the TGI (HOP-92 NSCLC) was 18.3 µM. For the same molecule, the GI50 (SK-MEL-2 melanoma) was 14.2 µM, the TGI (SK-MEL-2 melanoma) was 27.2 µM and the GI50 (PC-3 prostate) was 10.8 µM. For the same molecule, the TGI (PC-3 prostate) was 31.6 µM, the GI50 (COLO 205 colon) was 2.06 µM and the TGI (COLO 205 colon) was 4.18 µM. For the same molecule, the GI50 (CCRF-CEM leukemia) was 5.93 µM, the TGI (CCRF-CEM leukemia) was over 100 µM and the GI50 (SN12C renal) was 12 µM. For the same molecule, the TGI (SN12C renal) was 30 µM, the GI50 (T-47D breast) was 7.72 µM and the TGI (T-47D breast) was 28.9 µM. The GI50 (SK-OV-3 ovarian) was 15 µM, the TGI (SK-OV-3 ovarian) was 31.4 µM and the GI50 (SW-620 colon) was 1.7 µM. For the same molecule, the TGI (SW-620 colon) was 3.7 µM, the GI50 (UACC-257 melanoma) was 14.7 µM and the TGI (UACC-257 melanoma) was 28.3 µM. The GI50 (NCI/ADR-RES ovarian) was 14 µM, the TGI (NCI/ADR-RES ovarian) was 30.9 µM and the GI50 (HL-60(TB) leukemia) was 1.58 µM. The TGI (HL-60(TB) leukemia) was 4.62 µM, the GI50 (IGROV1 ovarian) was 7.56 µM and the TGI (IGROV1 ovarian) was 22.6 µM. It also gave a GI50 (786-0 renal) of 3.77 µM, a TGI (786-0 renal) of 15.3 µM and a GI50 (HCT-15 colon) of 2.9 µM. For the same molecule, the TGI (HCT-15 colon) was 10.9 µM, the GI50 (SK-MEL-28 melanoma) was 15.5 µM and the TGI (SK-MEL-28 melanoma) was 28.9 µM. For the same molecule, the GI50 (CAKI-1 renal) was 10.2 µM, the TGI (CAKI-1 renal) was 23.3 µM and the GI50 (SF-539 CNS) was 12.3 µM. For the same molecule, the TGI (SF-539 CNS) was 26.5 µM, the GI50 (KM12 colon) was 17.5 µM and the TGI (KM12 colon) was 31.3 µM. It also gave a GI50 (MDA-MB-231 breast) of 4 µM, a TGI (MDA-MB-231 breast) of 17.4 µM and a GI50 (BT-549 breast) of 15.6 µM. It also gave a TGI (BT-549 breast) of 28.9 µM, a GI50 (MDA-MB-435) of 12.9 µM and a TGI (MDA-MB-435) of 25.6 µM. The GI50 (SK-MEL-5 melanoma) was 15.3 µM, the TGI (SK-MEL-5 melanoma) was 28.6 µM and the GI50 (NCI-H522 lung) was 16.3 µM. The TGI (NCI-H522 lung) was 32 µM, the GI50 (NCI-H226 lung) was 14.9 µM and the TGI (NCI-H226 lung) was 34 µM. The GI50 (U251 CNS) was 2.5 µM, the TGI (U251 CNS) was 8.16 µM and the GI50 (SF-295 CNS) was 14.4 µM. It also gave a TGI (SF-295 CNS) of 28.7 µM, a GI50 (TK-10 renal) of 22.6 µM and a TGI (TK-10 renal) of 38 µM. The GI50 (ACHN renal) was 5.01 µM, the TGI (ACHN renal) was 17.1 µM and the GI50 (UACC-62 melanoma) was 16.9 µM. For the same molecule, the TGI (UACC-62 melanoma) was 31.5 µM, the GI50 (HCT-116 colon) was 3.7 µM and the TGI (HCT-116 colon) was 12.9 µM. It also gave a GI50 (A498 renal) of 14.1 µM, a TGI (A498 renal) of 27.1 µM and a GI50 (SR leukemia) of 0.741 µM. It also gave a TGI (SR leukemia) of 6.71 µM, a GI50 (SNB-75 CNS) of 16.8 µM and a TGI (SNB-75 CNS) of 33.4 µM. For the same molecule, the GI50 (MOLT-4 leukemia) was 3.16 µM, the TGI (MOLT-4 leukemia) was 16.1 µM and the GI50 (OVCAR-5 ovarian) was 11.8 µM. It also gave a TGI (OVCAR-5 ovarian) of 24.1 µM, a GI50 (M14 melanoma) of 11.5 µM and a TGI (M14 melanoma) of 23.7 µM. The GI50 (RXF 393 renal) was 6.16 µM, the TGI (RXF 393 renal) was 20.4 µM and the GI50 (OVCAR-8 ovarian) was 3.25 µM. For the same molecule, the TGI (OVCAR-8 ovarian) was 11.9 µM, the GI50 (K-562 leukemia) was 2.35 µM and the TGI (K-562 leukemia) was 6.9 µM. It also gave a GI50 (A549 NSCLC) of 4.39 µM, a TGI (A549 NSCLC) of 18.1 µM and a GI50 (SF-268 CNS) of 16.3 µM. It also gave a TGI (SF-268 CNS) of 37.9 µM, a GI50 (HOP-62 NSCLC) of 15.5 µM and a TGI (HOP-62 NSCLC) of 35.7 µM. The GI50 (NCI-H460 lung) was 2.24 µM, the TGI (NCI-H460 lung) was 5.03 µM and the GI50 (LOX IMVI melanoma) was 1.52 µM. For the same molecule, the TGI (LOX IMVI melanoma) was 2.95 µM, the GI50 (OVCAR-4 ovarian) was 14.3 µM and the TGI (OVCAR-4 ovarian) was 31 µM. For the same molecule, the GI50 (HCC-2998 colon) was 1.95 µM, the TGI (HCC-2998 colon) was 4.17 µM and the GI50 (HS 578T breast) was 15.3 µM. The TGI (HS 578T breast) was 42 µM, the GI50 (SNB-19 CNS) was 16.7 µM and the TGI (SNB-19 CNS) was 36.6 µM. For the same molecule, the GI50 (HT29 colon) was 5.25 µM, the TGI (HT29 colon) was 17.4 µM and the GI50 (UO-31 renal) was 13.3 µM. It also gave a TGI (UO-31 renal) of 28.1 µM.

— PubChem BioAssay (NCI)
